# US9492470B2, “Use of HMGA-targeted phosphorothioate DNA aptamers to suppress carcinogenic activity and increase sensitivity to chemotherapy agents in human cancer cells” (MIAMI UNIVERSITY, priority 2012, dated 2016)
# Read-outs that look alike come from different tables or passages of the source. In the oligonucleotide strings, read from the 5' end, every base follows the letter of its sugar. An asterisk marks phosphorothioate; unmarked linkages are phosphodiester. Other units and linkages are bracketed, terminal groups are in braces. A string of capitals states the bases alone. d = 2'-deoxy (DNA)
# What was measured:
# [1] = tested on: Miapaca-2 cells; test: Cell growth with gemcitabine treatment after sDNA transfection, Miapaca-2; assay type: cell-based, Human; settings: 96 hours; for Fold change in numbers of viable cells normalized relative to TC: Miapaca-2, 0.1 ug sDNA
# Procedure: (§1) Cells were fixed after 96 hours and numbers of viable cells counted by measuring the absorbance at 570 nm.
# (§2) Cells were transfected with 0.1 μg of TC-sDNA, Mix-sDNA, CG-sDNA, and AT-sDNA.
# [2] = tested on: HMGA1 expression levels in AsPC-1 cells; test: Western blot of HMGA1 expression levels in AsPC-1 nuclear extracts; assay type: cell-based, Human; settings: AsPC-1, 0.5 μg sDNA in six well plates, 48 hours
# Procedure: Cytoplasmic and nuclear protein extracts were prepared from pancreatic cancer cells using NE-PER extraction kit (Thermo Scientific, Rockford, Ill.). Protein concentrations were determined using a bicinchoninic acid assay with bovine serum albumin as a standard. Nuclear proteins that contained 25 or 15 μg total protein were separated by SDS-PAGE with a 4%-20% Criterion gradient gel (Bio-Rad Laboratories, Inc., Hercules, Calif.). The proteins were transferred to immuno-blot PVDF membrane (0.2 μm) (Bio-Rad Laboratories, Inc., Hercules, Calif.) and blocked in 5% dry milk in PBS supplemented with 0.2% Tween 20 (PBST). The PVDF membranes were then probed with 1:1000 dilution of rabbit anti-HMGA1 antibody (Santa Cruz Biotechnology Inc, Santa Cruz, Calif.) and 1:100 dilution of rabbit anti-HMGA2 antibody (Abcam plc, Cambridge, Mass.), in 3% BSA in PBST at 4° C. overnight. After three washes with PBST, the membrane was blotted with secondary antibody, ant-rabbit IgG-HRP (cell signaling) 1:5000 dilution in 1% dry milk in PBST at room temperature for 1 hour. An enhanced chemiluminescence detection (ECL, GE Healthcare Life Sciences, Piscataway, N.J.) system was used to detect target proteins. To ensure equal loading of the proteins between groups, membranes were re-probed with anti-TATA binding protein antibody (Abcam plc, Cambridge, Mass.). […] The control was nuclear extract from untreated cells. Triplicates of each sample were run on the gel and analyzed with the Alpha Imager. The relative HMGA1 densities were obtained by dividing HMGA 1 density by TBP density. […] TATA binding protein (TBP) was used as a loading control. […] HMGA1 expression levels were examined after transfection with CG-sDNA or AT-sDNA to determine if the transfection procedure affected HMGA1 expression levels. The AT-sDNA used for transfection contained an 18 adenine/thymine stretch enabling HMGA1 to bind the DNA with all three AT-hooks. As a negative control, a non-HMGA1-targeted sDNA containing an equal length of DNA but with no AT-stretches, i.e. CG-sDNA, was used. […]
# [3] = tested on: Miapaca-2 cells; test: Cell viability (crystal violet) after sDNA transfection, Miapaca-2; assay type: cell-based, Human; settings: for cells dead compared to TC: versus transfection control (TC) cells; for cells dead compared to UT: Miapaca-2, 0.1 ug sDNA, versus untransfected (UT) cells; for Fold change in numbers of viable cells between TC and sDNA transfected cells (in parentheses) / Fold change in numbers of viable cells between UT and transfected cells: 96 h after transfection
# Procedure: The absorbance was measured at 570 nm in quadruplicate. All data from control cells were combined and averaged.
# [4] = tested on: AsPC-1 cells; test: Cell growth with gemcitabine treatment after sDNA transfection, AsPC-1; assay type: cell-based, Human; settings: for cells died: AsPC-1, 0.25 μg AT-sDNA
# [5] = tested on: AsPC-1 cells; settings: for cell death: 96 h, compared to non-transfected cells; for cells dead compared to UT: AsPC-1, 0.1 ug sDNA, versus untransfected (UT) cells; for Fold change in numbers of viable cells between TC and sDNA transfected cells (in parentheses) / Fold change in numbers of viable cells between UT and transfected cells: 96 h after transfection
# Procedure: AsPC-1 cells were grown in Roswell Park Memorial Institute medium supplemented with 10% FBS, and 1% penicillin-streptomycin.
# Transfections using sDNA at concentrations of 0.1 and 0.25 μg per well were conducted with 5×10^4 and 1×10^5 Miapaca-2 and AsPC-1 cells, respectively, in 24-well plates and all data were collected in quadruplicate. Miapaca-2 and AsPC-1 cells were transfected with sDNA using Lipofectamine 2000 (Invitrogen,™ Life Technologies Corporation, Carlsbad, Calif.) according to the manufacturer's protocol.
# Briefly, AsPC-1 cells grown in 10% FBS containing RPIM medium were trypsinized using a trypsin-EDTA solution commercially available from the Sigma-Aldrich, and used to seed fresh media in a 24-well plate with 10^5 cells per well.
# After 48 hours, the cells were transfected with the selected sDNA using Lipofectamine 2000 (Invitrogen,™ Life Technologies Corporation, Carlsbad, Calif.) according to the manufacturer's protocol. […] The cells were then fixed with 4% paraformaldehyde in PBS for 20 minutes and stained in 0.1% crystal violet stain (Sigma-Aldrich) for 30 minutes. The cells were washed under running tap water, air dried, and extracted with 0.2% Triton™ X-100 for 30 minutes. […] The absorbance of the Triton X-100 was measured at 570 nm using a HTS microplate reader. All results were analyzed for statistical significance using a student's unpaired t-test.
# [6] = tested on: AsPC-1 cells; test: Cell growth with gemcitabine treatment after sDNA transfection, AsPC-1; assay type: cell-based, Human; settings: for Fold change in numbers of viable cells normalized relative to TC: AsPC-1, 0.1 ug sDNA, 96 hours
# Procedure: as §1, §2
# [7] = tested on: Miapaca-2 cells; test: Cell growth with gemcitabine treatment after sDNA transfection, Miapaca-2; assay type: cell-based, Human; settings: for Fold change in numbers of viable cells normalized relative to TC: 96 hours
substance,measurement,setting,value
"AT-sDNA: AT-rich phosphorothioate DNA, 5′-G*G*G*A*A*A*A*A*A*T*T*T*T*T*T*A*A*A*A*A*A*C*C*C-3′ (SEQ ID NO: 1), sulfur substitution at every position (DNA dG*dG*dG*dA*dA*dA*dA*dA*dA*dT*dT*dT*dT*dT*dT*dA*dA*dA*dA*dA*dA*dC*dC*dC)",cells dead / change in cell viability,"[1]; Miapaca-2, 0.1 μg sDNA, 1 nM gemcitabine",33.6%
same,cells surviving,"[1]; Miapaca-2, 0.1 μg sDNA, 10 nM gemcitabine, normalized to 0 nM gemcitabine",51.2%
same,Fold change in numbers of viable cells normalized relative to TC,[1]; Gemcitabine 0 nM,−1.52 fold
same,Fold change in numbers of viable cells normalized relative to TC,[1]; Gemcitabine 10 nM,−1.79 fold
same,Fold change in numbers of viable cells normalized relative to TC,[1]; Gemcitabine 30 nM,−7.07 fold
same,Fold change in numbers of viable cells normalized relative to TC,[1]; Gemcitabine 100 nM,−9.58 fold
same,Fold change in numbers of viable cells normalized relative to TC,[1]; Gemcitabine 1000 nM,−6.82 fold
same,change in HMGA1 expression levels after sDNA transfection,[2],no changes
same,cells dead compared to TC,"[3]; Miapaca-2, 0.1 μg sDNA, 48 hrs",17.2%
same,cells dead compared to UT,[3]; 48 hrs,48.4%
same,Fold change in numbers of viable cells between TC and sDNA transfected cells (in parentheses),"[3]; Miapaca-2, 0.1 μg sDNA",−1.52 fold
same,Fold change in numbers of viable cells between UT and transfected cells,"[3]; Miapaca-2, 0.1 μg sDNA",−2.36 fold
same,cells dead compared to TC,"[3]; Miapaca-2, 0.1 μg sDNA, 96 hrs",34.1%
same,cells dead compared to UT,[3]; 96 hrs,58.9%
same,Fold change in numbers of viable cells between TC and sDNA transfected cells (in parentheses),"[3]; Miapaca-2, 0.25 μg sDNA",−3.68 fold
same,Fold change in numbers of viable cells between UT and transfected cells,"[3]; Miapaca-2, 0.25 μg sDNA",−6.07 fold
same,cell death,"[4]; AsPC-1, 0.025 μg AT-sDNA, 1000 nM gemcitabine",31%
same,cells dying,"[4]; AsPC-1, 0.1 μg AT-sDNA, 1 nM gemcitabine",9.0%
same,cells died,[4]; 1 nM gemcitabine,14.9%
same,cells died,[4]; 100 nM gemcitabine,41.7%
same,overall drop in the number of viable cells after gemcitabine treatment,"[4]; AsPC-1, AT-sDNA transfection",2-4 fold
same,cell death,"[5]; AsPC-1, 0.1 μg sDNA per well",33%
same,cells dead compared to TC,"[5]; AsPC-1, 0.1 μg sDNA, 48 hrs, versus transfection control (TC) cells",22.3%
same,cells dead compared to UT,[5]; 48 hrs,42.0%
same,Fold change in numbers of viable cells between TC and sDNA transfected cells (in parentheses),"[5]; AsPC-1, 0.1 μg sDNA",−1.44 fold
same,Fold change in numbers of viable cells between UT and transfected cells,"[5]; AsPC-1, 0.1 μg sDNA",−1.57 fold
same,cells dead compared to TC,"[5]; AsPC-1, 0.1 μg sDNA, 96 hrs, versus transfection control (TC) cells",30.7%
same,cells dead compared to UT,[5]; 96 hrs,36.1%
same,cell death,"[5]; AsPC-1, 0.25 μg sDNA per well",44%
same,Fold change in numbers of viable cells between TC and sDNA transfected cells (in parentheses),"[5]; AsPC-1, 0.25 μg sDNA",−1.65 fold
same,Fold change in numbers of viable cells between UT and transfected cells,"[5]; AsPC-1, 0.25 μg sDNA",−1.79 fold
same,cell death compared to TC,"[5]; AsPC-1, 0.25 μg sDNA, 96 hours, versus TC cells",39.4%
same,cell death,"[5]; AsPC-1, 1.0 μg sDNA per well",57%
same,cells dead compared to TC,"[5]; AsPC-1, 1.0 μg sDNA, 96 hours, versus TC cells",53.6%
same,cells dying,"[6]; AsPC-1, 0.1 μg AT-sDNA, 100 nM gemcitabine",29.4%
same,Fold change in numbers of viable cells normalized relative to TC,[6]; Gemcitabine 0 nM,−1.44 fold
same,Fold change in numbers of viable cells normalized relative to TC,[6]; Gemcitabine 1 nM,−1.58 fold
same,Fold change in numbers of viable cells normalized relative to TC,[6]; Gemcitabine 10 nM,−1.71 fold
same,Fold change in numbers of viable cells normalized relative to TC,[6]; Gemcitabine 30 nM,−1.86 fold
same,Fold change in numbers of viable cells normalized relative to TC,[6]; Gemcitabine 100 nM,−2.04 fold
same,Fold change in numbers of viable cells normalized relative to TC,[6]; Gemcitabine 1000 nM,−2.33 fold
same,Fold change in numbers of viable cells normalized relative to TC,"[7]; Miapaca-2, 0.1 ug sDNA, Gemcitabine 1 nM",−1.38 fold
same,Fold change in numbers of viable cells normalized relative to TC,"[7]; Miapaca-2, 0.25 ug sDNA, Gemcitabine 0 nM",−3.68 fold
same,Fold change in numbers of viable cells normalized relative to TC,"[7]; Miapaca-2, 0.25 ug sDNA, Gemcitabine 1 nM",−4.45 fold
same,Fold change in numbers of viable cells normalized relative to TC,"[7]; Miapaca-2, 0.25 ug sDNA, Gemcitabine 10 nM",−4.14 fold
same,Fold change in numbers of viable cells normalized relative to TC,"[7]; Miapaca-2, 0.25 ug sDNA, Gemcitabine 30 nM",−8.32 fold
same,Fold change in numbers of viable cells normalized relative to TC,"[7]; Miapaca-2, 0.25 ug sDNA, Gemcitabine 100 nM",−11.81 fold
same,Fold change in numbers of viable cells normalized relative to TC,"[7]; Miapaca-2, 0.25 ug sDNA, Gemcitabine 1000 nM",−11.31 fold
same,overall drop in the number of viable cells,"[7]; Miapaca-2, either 0.1 or 0.25 μg AT-sDNA, 100 nm or greater gemcitabine",~10 fold
